Assay results from patent US20020094522A1, “Means and methods for monitoring non-nucleoside reverse transcriptase inhibitor antiretroviral therapy and guiding therapeutic decisions in the treatment of HIV/AIDS” (priority 2000, published 2002).
Where two headings read alike, the source gives them in different places.

Legend:
[1] = tested on: V106A-RTV (HIV reverse transcriptase V106A); experiment: Phenotypic susceptibility assay, V106A-RTV; type: cell-based, HIV-1; details: site directed mutant
Text: (§1) The resistance test vectors containing a functional luciferase gene cassette were constructed and host cells were transfected with the resistance test vector DNA. The resistant test vectors contained patient-derived reverse transcriptase and protease sequences that were either susceptible or resistant to the antiretroviral agents, such as nucleoside reverse transcriptase inhibitors, non-nucleoside reverse transcriptase inhibitors and protease inhibitors. The resistance test vector viral particles produced by transfecting the resistance test vector DNA into host cells, either in the presence or absence of protease inhibitors, were used to infect target host cells grown either in the absence of NRTI or NNRTI or in the presence of increasing concentrations of the drug. The amount of luciferase activity produced in infected target host cells in the presence of drug was compared to the amount of luciferase produced in infected target host cells in the absence of drug. Drug resistance was measured as the amount of drug required to inhibit by 50% the luciferase activity detected in the absence of drug (inhibitory concentration 50%, IC50). The IC50 values were determined by plotting percent drug inhibition vs. log10 drug concentration.
(§2) Host cells were seeded in 10-cm-diameter dishes and were transfected several days after plating with resistance test vector plasmid DNA and the envelope expression vector. Transfections were performed using a calcium-phosphate precipitation procedure. The cell culture media containing the DNA precipitate was replaced with fresh medium, from one to 24 hours, after transfection. Cell culture media containing resistance test vector viral particles was harvested one to four days after transfection and was passed through a […] filter before being stored at −80° C. HIV capsid protein (p24) levels in the harvested cell culture media were determined by an EIA method as described by the manufacturer (SIAC; Frederick, Md.). […] The inhibitory effect of the drug was determined using the following equation: […]

K101E-G190S-RTV = experiment: Phenotypic susceptibility assay, K101E-G190S-RTV; type: cell-based, HIV-1
Text: as §1
as §2, with “Md.). Before infection, target cells (293 and 293/T) were plated in cell culture media. Control infections were performed using cell culture media from mock transfections (no DNA) or transfections containing the resistance test vector plasmid DNA without the envelope expression plasmid. One to three or more days after infection the media was removed and cell lysis buffer (Promega) was added to each well.” for “Md.).”
where RLUluc [drug] is the relative light unit of luciferase activity in infected cells in the presence of drug and RLUluc is the Relative Light Unit of luciferase activity in infected cells in the absence of drug. IC50 values were obtained from the sigmoidal curves that were generated from the data by plotting the percent inhibition of luciferase activity vs. the log10 drug concentration.
The K101E and G190S mutations were introduced alone and in combination into resistance test vectors using the mega-primer method for site-directed mutagenesis (Sakar and Sommar, Ibid.). Resistance test vectors containing the K101E mutation (K101E-RTV), the G190S mutation (G190S-RTV) were then tested using the phenotypic assay described earlier and the results were compared to those determined using a genetically defined resistance test vector that was wild type at positions 101 and 190.

A98G-G190S-RTV = experiment: Phenotypic susceptibility assay, A98G-G190S-RTV; type: cell-based, HIV-1; details: values <1 = increased susceptibility
Text: as §1, §2

[2] = tested on: G190A-RTV (HIV reverse transcriptase G190A); experiment: Phenotypic susceptibility assay, G190A-RTV; type: cell-based, HIV-1
Text: as §1
as §2, with “Md.). Before infection, target cells (293 and 293/T) were plated in cell culture media. Control infections were performed using cell culture media from mock transfections (no DNA) or transfections containing the resistance test vector plasmid DNA without the envelope expression plasmid. One to three or more days after infection the media was removed and cell lysis buffer (Promega) was added to each well.” for “Md.).”
where RLUluc [drug] is the relative light unit of luciferase activity in infected cells in the presence of drug and RLUluc is the Relative Light Unit of luciferase activity in infected cells in the absence of drug. […]

[3] = tested on: L100I-RTV (HIV reverse transcriptase L100I); experiment: Phenotypic susceptibility assay, L100I-RTV; type: cell-based, HIV-1; details: site directed mutant
Text: as §1
(§3) Host cells were seeded in 10-cm-diameter dishes and were transfected several days after plating with resistance test vector plasmid DNA and the envelope expression vector. Transfections were performed using a calcium-phosphate precipitation procedure. […] HIV capsid protein (p24) levels in the harvested cell culture media were determined by an EIA method as described by the manufacturer (SIAC; Frederick, Md.). […] The inhibitory effect of the drug was determined using the following equation: […]
The mutations Y188L, L100I and K103N were introduced alone and in combinationn into resistance test vectors using the mega-primer method for site-directed mutagenesis (Sakar and Sommar, Ibid.). […] We determined the pattern of phenotypic susceptibility to the NNRTIs, delavirdine, nevlrapine and efavirenz, in all 6 vectors.

[4] = tested on: RTV-B clone 1 (patient sample B); experiment: Phenotypic susceptibility assay, RTV-B clone 1; type: cell-based, HIV-1; details: values <1 = increased susceptibility
Text: as §1, §2

[5] = tested on: T66I integrase site-directed mutant resistance test vector; experiment: Phenotypic susceptibility assay, T66I integrase mutant vector; type: cell-based, HIV; details: {}
Experimental: Transfections were performed using a calcium-phosphate precipitation procedure. […] Cell lysates were assayed for luciferase activity (FIG. 3).
The drug inhibition curves are shown in (FIG. 3).
A resistance test vector containing the threonine to isoleucine mutation at position 66 of the integrase protein (T66I) was constructed and tested using the phenotypic assay described earlier.

E138A-Y188L-RTV = experiment: Phenotypic susceptibility assay, E138A-Y188L-RTV; type: cell-based, HIV-1; details: site directed mutant
Text: as §1, with “Drug resistance was measured as the amount of drug required to inhibit by 50% the luciferase activity detected in the absence of drug (inhibitory concentration 50%, IC50).” left out
as §3, with “vector.” for “vector. Transfections were performed using a calcium-phosphate precipitation procedure.”
The E138A mutation alone and in combination with Y188L was introduced into resistance test vectors using the megaprimer method for site-directed mutagenesis (Sakar and Sommar, Ibid.). Resistance test vectors containing the E138A mutation (E138A-RTV) or the E138 mutation along with the […] mutation (E138A-Y188L-RTV) were then tested using the phenotypic assay described earlier and the results were compared to those determined using a genetically defined resistance test vector that was wild type at positions 188 and 138.

[6] = values <1 = increased susceptibility

## CC(C)Nc1cccnc1N1CCN(C(=O)c2cc3cc(NS(C)(=O)=O)ccc3[nH]2)CC1 [delavirdine]
[1]
  fold loss of susceptibility compared to wild type control RTV: 5 fold
K101E-G190S-RTV
  fold change in susceptibility compared to wild type control RTV: 1.4 fold
K101E-G190S-RTV; [6]
  fold change in susceptibility compared to wild type control RTV: 0.5 fold
A98G-G190S-RTV
  fold change in susceptibility compared to wild type control RTV: 0.8 fold
[2]
  change in susceptibility compared to wild type reference RTV: slightly more susceptible to delavirdine
[2]; listed as delviridine
  change in susceptibility compared to wild type reference RTV: increased susceptibility
[3]
  fold loss of susceptibility compared to wild type control RTV: 30 fold
[4]
  fold change in susceptibility (IC50): 0.55 fold
[5]
  increase in susceptibility compared to wild type control RTV: 8-10 fold
E138A-Y188L-RTV
  fold loss of susceptibility compared to wild type control RTV: 75 fold

## O=C1Nc2ccc(Cl)cc2[C@@](C#CC2CC2)(C(F)(F)F)O1 [efavirenz]
[1]
  fold loss of susceptibility compared to wild type control RTV: 1.7 fold
K101E-G190S-RTV
  fold change in susceptibility compared to wild type control RTV: greater than 250 fold
K101E-G190S-RTV; [6]
  fold change in susceptibility compared to wild type control RTV: 7.6 fold
A98G-G190S-RTV
  fold change in susceptibility compared to wild type control RTV: greater than 250 fold
[2]; site directed mutant
  fold change in susceptibility compared to wild type control RTV: 8 fold
[3]
  fold loss of susceptibility compared to wild type control RTV: 10 fold
[4]
  fold change in susceptibility (IC50): 250 fold
[5]
  increase in susceptibility compared to wild type control RTV: 8-10 fold
E138A-Y188L-RTV
  fold loss of susceptibility compared to wild type control RTV: 88 fold

## Cc1ccnc2c1NC(=O)c1cccnc1N2C1CC1 [nevirapine]
[1]
  fold loss of susceptibility compared to wild type control RTV: 60 fold
K101E-G190S-RTV
  fold change in susceptibility compared to wild type control RTV: greater than 800 fold
K101E-G190S-RTV; [6]
  fold change in susceptibility compared to wild type control RTV: 75 fold
A98G-G190S-RTV
  fold change in susceptibility compared to wild type control RTV: greater than 800 fold
[2]
  change in susceptibility compared to wild type reference RTV: markedly less susceptible to nevirapine
[3]
  fold loss of susceptibility compared to wild type control RTV: 3 fold
[4]
  fold change in susceptibility (IC50): 640 fold
[5]
  increase in susceptibility compared to wild type control RTV: 8-10 fold
E138A-Y188L-RTV
  fold loss of susceptibility compared to wild type control RTV: greater than 800 fold
